Patent US12098217B2, “Fusion peptides as antimicrobial agents” (CENTRE NATIONAL DE LA RECHERCHE SCIENTIFIQUE, priority 2019, dated 2024)
In brackets after ≈: the same amount, converted by molar mass. Read-outs that look alike come from different tables or passages of the source. Values belong to the compound of their own block, whether it stands above or below them. Square brackets hold non-standard residues; d marks the D form. Peptide text beside a SMILES is read from it. * marks the point of attachment. 5FAM = O=C1OC2(c3ccc(O)cc3Oc3cc(O)ccc32)c2ccc(C(=O)*)cc21; Cha = N[C@@H](CC1CCCCC1)C(=O)O

Columns and labels:
[1] = target: T1, E. coli SC (^EcSC, beta ring, DnaN) (Escherichia coli, UniProt P0A988); experiment: ITC, peptide interaction with E. coli sliding clamp; assay type: binding
T1 construct: inferred from the pET15b vector and the Ni-NTA/imidazole purification; made in house; host or cells: E. coli BL21 (DE3) pLys
T1 sequence (P0A988 whole entry): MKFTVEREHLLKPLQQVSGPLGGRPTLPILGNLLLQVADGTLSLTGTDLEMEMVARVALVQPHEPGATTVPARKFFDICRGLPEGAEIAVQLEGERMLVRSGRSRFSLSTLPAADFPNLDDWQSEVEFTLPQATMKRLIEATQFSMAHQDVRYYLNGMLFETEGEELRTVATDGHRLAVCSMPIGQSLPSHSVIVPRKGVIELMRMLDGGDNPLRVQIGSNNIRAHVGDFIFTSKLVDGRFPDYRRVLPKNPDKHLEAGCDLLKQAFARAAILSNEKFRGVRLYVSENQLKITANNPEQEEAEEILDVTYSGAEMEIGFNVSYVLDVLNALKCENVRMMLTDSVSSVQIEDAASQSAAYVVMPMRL
Procedure: The DnaN protein was expressed from plasmids pET15b, containing the dnaN gene from E. coli, transfected in BL21 (DE3) pLys E. coli strain. Cells were grown in LB at 37° C. to OD 0.5, then induced by IPTG (0.1 mM) at 28° C. overnight. DnaN protein was first enriched on a Ni-NTA column, eluted with an imidazole step (300 mM) and further purified on a Source Q column in buffer containing 20 mM Tris HCl pH 7.5, 0.5 mM EDTA and 10% glycerol, using a gradient from 0 to 0.5 M NaCl. After a final ultracentrifugation (45K, 1 h, 20° C.), soluble proteins were concentrated on a Centricon 30K (Millipore) in the same buffer and stored at 4° C. in 2 M ammonium sulfate.
ITC experiments were performed on a iTC200 (Microcal Malvern Panalytical) or PEAQ-ITC instrument (Microcal Malvern Panalytical). The E. coli SC were washed extensively with ITC buffer (R1 buffer: 10 mM Hepes pH 7.4, 0.15 M NaCl, 3 mM EDTA) on Centrikon 10K at 4° C. before ITC experiments. […] Similarly, E. coli 70S ribosome particles were also washed extensively with ITC 70S buffer (50 mM Tris HCl pH7.5, 30 mM KCl, 70 mM NH4Cl, 7 mM MgCl2, 1 mM DTT, 5% glycerol) on Centrikon 100K at 4° C. before ITC experiments. […] […] Data were corrected from control experiments in which peptides were injected in ITC buffer solution. Each titration was performed at least twice. Analyses of experimental data were performed with AFFINImeter software (https://www.affinimeter.com; S4S, Santiago de Compostela, Spain).

[2] = system: E. coli ATCC 25922 (DSM 1103) strain; assay type: cell-based; conditions: for MIC: ATCC 25922, 36 h
Procedure: (§1) E. coli strains were cultivated on either agar or liquid 1× Mueller Hinton broth unless specified. MIC assays were performed in duplicate in 96-well microtiter plates on the basis of the protocol recommended by the Clinical and Laboratory Standards Institute. Briefly, a mix of 5-6 fresh (less than 36 hours) colonies grown on MH agar plates were inoculated in 3 ml of MH broth and incubated for about 16 h at 37° C. under agitation. 30 μl of this saturated culture were inoculated in 3 ml of fresh medium and allowed to grow until OD600 nm of about 0.6-0.8. Dilution to an OD600 nm of 0.002 was made in MH broth. Within a time laps not exceeding 30 min, 50 μl of this cell suspension was added to 50 μl of MH broth (containing or not the peptide/antibiotic diluted in MH broth) in wells of a 96-well round bottom microwell plate (Greiner; final cell density about 2 to 5×10^5 cfu/ml). Plates were incubated at 37° C. for 18-24 h and final turbidity of each well was measured at 620 nm using a Multiskan FC microplate reader (Thermo Scientific). MIC was defined as the minimal antibiotic concentration that result in no increase of turbidity at that time. Each MIC determination was performed in duplicate and at least in two independent experiments. Plating of 75 μl of the content of the wells of interest on LB Agar plates was used to determine the MBC that is defined by a decrease of at least 99.9% of cell viability as compared to the number of viable cells in the inoculum (about 2 to 5×10^4 cfu).
The antimicrobial activities of these peptides have been tested against the E. coli ATCC 25922 (DSM 1103) strain in 1× Mueller-Hinton broth as mentioned above.
The antimicrobial activities of these peptides and controls have been tested against the E. coli ATCC 25922 (DSM 1103) strain in 1× Mueller-Hinton broth.

[3] = system: E. coli 70S ribosome (^Ec70S); experiment: ITC, peptide interaction with E. coli 70S ribosome; assay type: binding
Procedure: E. coli MRE600 cells were grown at 37° C. in LB medium until OD^600=1. Cells were centrifuged at 4° C., and pellets were resuspended in buffer A (20 mM Tris HCl pH 7.5; 200 mM NH4Cl; 20 mM MgCl2; 0.1 mM EDTA; 6 mM β-mercaptoethanol) and lysed using a French press at 1.6 kbar. The crude lysate was centrifuged (18 200 rpm) for 30 mn at 4° C. The supernatant was further centrifuged (47000 rpm) at 4° C. for 4 hours and the pellet resuspended in 12.5 ml of buffer A. This solution was laid on a 30% sucrose cushion and centrifuged (34 000 rpm) for 19 hours at 4° C. The ribosome pellet was resuspended in 12.5 ml buffer B (20 mM Tris HCl pH 7.5; 50 mM NH4Cl; 10 mM MgCl2; 0.1 mM EDTA; 6 mM β-mercaptoethanol) and centrifuged again (18 200 rpm) for 1 hour at 4° C. The supernatant was concentrated on Centrikon 100K (Millipore) and washed extensively with ITC 70S buffer. Ribosome concentration was determined by UV absorption at 260 nm. Samples were snap frozen in liquid nitrogen and kept at −80° C.
ITC experiments were performed on a iTC200 (Microcal Malvern Panalytical) or PEAQ-ITC instrument (Microcal Malvern Panalytical). The E. coli SC were washed extensively with ITC buffer (R1 buffer: 10 mM Hepes pH 7.4, 0.15 M NaCl, 3 mM EDTA) on Centrikon 10K at 4° C. before ITC experiments. […] Similarly, E. coli 70S ribosome particles were also washed extensively with ITC 70S buffer (50 mM Tris HCl pH7.5, 30 mM KCl, 70 mM NH4Cl, 7 mM MgCl2, 1 mM DTT, 5% glycerol) on Centrikon 100K at 4° C. before ITC experiments. Peptides (100 to 400 μM) were titrated at 30° C. (303.15 K) in sequential injections (usually 2 μl each) into a SC (20 or 30 μM) or 70S (10 to 15 μM) solution. Data were corrected from control experiments in which peptides were injected in ITC buffer solution. Each titration was performed at least twice. Analyses of experimental data were performed with AFFINImeter software (https://www.affinimeter.com; S4S, Santiago de Compostela, Spain).
The lack of interaction with the ribosome of E. coli has been measured by ITC at 30° C.:
The interactions of these peptides with the E. coli SC (beta ring) and the ribosome were measured by ITC at […]: […]

E. coli = conditions: cited from earlier work
E. coli D22 strain = experiment: microbe, parasite or virus in culture; assay type: cell-based; conditions: D22 strain, 36 h
Text: E. coli strain D22 (F-, IpxC101, proA23, lac-28, tsx-81, trp-30, his-51, tufA1, rpsL173(strR), ampCp-1 was purchased at E. coli Genetic Stock Center (Yale University) and used in the determination of MIC and in the peptide penetration assays. E. coli ATCC23724 cells were used to infect D. melanogaster flies. 70S ribosomes were purified from the E. coli MRE600 strain (Accession AY140951) and BL21 (DE3) pLys strain was used for production of the DnaN protein.
as §1

[4] = ITC 25° C., E. coli SC (beta ring)
[5] = ITC 30° C., Table 2A, ^EcSC, Ni = no specific interaction
[6] = ITC 30° C., Table 2B, ^Ec70S, Ni = no specific interaction, FITC peptides (*) values not well defined
[7] = ITC, 30° C., E. coli ribosome, FITC-Onc112 series

SMILES: CC[C@H](C)[C@H](NC(=O)[C@@H](CCCNC(=N)N)NC(=O)[C@H](CCCNC(=N)N)NC(=O)[C@@H]1CCCN1C(=O)[C@@H]1CCCN1C(=O)[C@H](CCCNC(=N)N)NC(=O)[C@@H]1CCCN1C(=O)[C@H](CCCNC(=N)N)NC(=O)[C@@H]1CCCN1C(=O)[C@H](CC(C)C)NC(=O)[C@H](Cc1ccc(O)cc1)NC(=O)[C@@H]1CCCN1C(=O)[C@@H]1CCCN1C(=O)[C@H](CCCCN)NC(=O)[C@H](CC(=O)O)NC(=O)[C@@H](NC(=O)[C@H](CCCNC(=N)N)NC(=O)[C@@H]1CCCN1C(=O)CNC(=O)[C@H](Cc1ccccc1)NC(=O)[C@H](CC(C)C)NC(=O)[C@H](CC(=O)O)NC(=O)[C@H](CC1CCCCC1)NC(=O)[C@H](CCC(N)=O)NC(C)=O)C(C)C)C(=O)N[C@@H](Cc1ccc(O)cc1)C(=O)N[C@@H](CC(N)=O)C(=O)N[C@H](CCCNC(=N)N)C(N)=O [CM1-76] (Ac-Q[Cha]DLFGPRVDKPPYLPRPRPPR[dR]IYN[dR]-NH2)
ΔG [1, 4]: -9.0 kcal/mol
ΔH [1, 4]: -10.7 kcal/mol
MIC [2]: 8 to 16 µM
factor of improvement of antimicrobial activity versus CA3-30 ([2]; E. coli ATCC 25922, MIC): 2
interaction with the E. coli ribosome (70S), in words ([3]; ITC 25° C.): no interaction

SMILES: CC[C@H](C)[C@H](NC(=O)[C@@H]1CCCN1C(=O)[C@H](CCCNC(=N)N)NC(=O)[C@@H]1CCCN1C(=O)[C@@H]1CCCN1C(=O)[C@@H](NC(=O)[C@@H]1CCCN1C(=O)[C@H](CCCNC(=N)N)NC(=O)[C@@H]1CCCN1C(=O)[C@H](CC(C)C)NC(=O)[C@H](Cc1ccc(O)cc1)NC(=O)[C@H](CO)NC(=O)CNC(=O)[C@H](CCCCN)NC(=O)[C@H](CC(=O)O)NC(=O)[C@@H](N)C(C)C)[C@@H](C)O)C(=O)N[C@@H](Cc1ccc(O)cc1)C(=O)N[C@@H](CC(N)=O)C(=O)N[C@@H](CCCNC(=N)N)C(=O)N[C@@H](CC(N)=O)C(N)=O [Py, reference compound] (H-VDKGSYLPRPTPPRPIYNRN-NH2)
MIC of previous reports (E. coli): 3.69 to 7.56 µM
MIC of previous reports (E. coli; other E. coli strains and/or culture media): 9 to 18 µg/mL
MBC (E. coli D22 strain): 8 µg/mL (≈ 3.42 µM)
interaction with ^EcSC, in words ([1]; ITC 30° C.): do not interact
ΔH (kcal/mole) ([1]; ITC 30° C. (303.15 K), Table 2A, ^EcSC, Ni = no specific interaction): Ni
Kd (nM) [1, 5]: Ni
ΔG (kcal/mole) [1, 5]: Ni
−TΔS (kcal/mole) [1, 5]: Ni
Kd ([3]; ITC 30° C., Table 2B, ^Ec70S, Ni = no specific interaction): 0.0155 µM
ΔG [3, 6]: -10.9 kcal/mol
ΔH [3, 6]: -19.2 kcal/mol
−TΔS [3, 6]: 8.23 kcal/mol

MIC [2]: 32 to 64 µM
SMILES: CC[C@H](C)[C@H](NC(=O)[C@@H](CCCNC(=N)N)NC(=O)[C@H](CCCNC(=N)N)NC(=O)[C@@H]1CCCN1C(=O)[C@@H]1CCCN1C(=O)[C@H](CCCNC(=N)N)NC(=O)[C@@H]1CCCN1C(=O)[C@H](CCCNC(=N)N)NC(=O)[C@@H]1CCCN1C(=O)[C@H](CC(C)C)NC(=O)[C@H](Cc1ccc(O)cc1)NC(=O)[C@@H]1CCCN1C(=O)[C@@H]1CCCN1C(=O)[C@H](CCCCN)NC(=O)[C@H](CC(=O)O)NC(=O)[C@@H](NC(=O)c1ccc2c(c1)C(=O)OC21c2ccc(O)cc2Oc2cc(O)ccc21)C(C)C)C(=O)N[C@@H](Cc1ccc(O)cc1)C(=O)N[C@@H](CC(N)=O)C(=O)N[C@H](CCCNC(=N)N)C(N)=O [CA3-124] (5FAM-VDKPPYLPRPRPPR[dR]IYN[dR]-NH2)
Kd [3, 7]: 7.7 µM
ΔG (kcal/mol) [3, 7]: −7.1 (±0.4) kcal/mol
ΔH [3, 7]: -22.6 kcal/mol

MIC [2]: 16 µM (≈ 61.5 µg/mL)
SMILES: CC[C@H](C)[C@H](NC(=O)[C@@H](CCCNC(=N)N)NC(=O)[C@H](CCCNC(=N)N)NC(=O)[C@@H]1CCCN1C(=O)[C@@H]1CCCN1C(=O)[C@H](CCCNC(=N)N)NC(=O)[C@@H]1CCCN1C(=O)[C@H](CCCNC(=N)N)NC(=O)[C@@H]1CCCN1C(=O)[C@H](CC(C)C)NC(=O)[C@H](Cc1ccc(O)cc1)NC(=O)[C@@H]1CCCN1C(=O)[C@@H]1CCCN1C(=O)[C@H](CCCCN)NC(=O)[C@H](CC(=O)O)NC(=O)[C@@H](NC(=O)[C@H](CCCCN)NC(=O)c1ccc2c(c1)C(=O)OC21c2ccc(O)cc2Oc2cc(O)ccc21)C(C)C)C(=O)N[C@@H](Cc1ccc(O)cc1)C(=O)N[C@@H](CC(N)=O)C(=O)N[C@H](CCCNC(=N)N)C(=O)NCC(=O)N1CCC[C@H]1C(=O)N[C@@H](CCCNC(=N)N)C(=O)N[C@@H](CCC(N)=O)C(=O)N[C@@H](CC1CCCCC1)C(=O)N[C@@H](CC(=O)O)C(=O)N[C@@H](CC(C)C)C(=O)N[C@@H](Cc1ccccc1)C(=O)O [CM1-92] (5FAM-KVDKPPYLPRPRPPR[dR]IYN[dR]GPRQ[Cha]DLF-OH)
Kd [3, 7]: > 50 µM
